Some results are limits rather than exact numbers.

This test has as its target CDK2/Cyclin E1 (Homo sapiens, UniProt P24941). In words: CDK2/Cyclin E1 Caliper LabChip EZ Reader mobility shift assay. The format is biochemical. Conditions: read-out: Caliper Assay (CDK2/CCNE1): IC50. Also noted: purchased Eurofins 14-475. The procedure, abridged: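 Mobility-shift kinase assay: compound titrations preincubated 30 min with enzyme and ATP, reaction started with 5-FAM-QSPKKG-CONH2 peptide. Final 2.5 nM CDK2/Cyclin E1, 100 μM ATP, 1.5 μM peptide, HEPES pH 7.5; stopped with EDTA after 100 min. IC50 from four-parameter fit of normalized conversion ratio.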
On to `CNC(=O)[C@@H](NC(=O)[C@@H]1CN(C(=O)c2cncs2)CC12CN(C(=O)[C@H]1CC1(C)C)C2)[C@@H](C)OCC1CCC2(CC1)CC2` [I-355], for which the IC50 was not above 10 nM.
`CNC(=O)[C@@H](NC(=O)[C@@H]1CN(C(=O)c2cncs2)CC12CN(CC1CCCO1)C2)[C@@H](C)OCC1CCCCC1` (some centres unmarked) [I-352]: the IC50 was more than 10000 nM.
Take `CO[C@H](C)[C@H](NC(=O)[C@@H]1CN(C(=O)c2cnn(C)c2)CC12CN(C(=O)[C@H]1CC1(C)C)C2)C(=O)N1CCCCC1` [I-303]: the IC50 was more than 10000 nM.
With `CNC(=O)[C@@H](NC(=O)[C@@H]1CN(C(=O)c2cncs2)CC12CN(C(=O)[C@H]1CC1(C)C)C2)C1(OCC2CCCCC2)CC1` [I-401], the IC50 lay within 10 to 100 nM.
As to `CC(C)(O)C(NC(=O)[C@@H]1CN(C(=O)c2cnco2)CC12CN(C(=O)[C@H]1CC1(C)C)C2)c1cccc(C2CCOCC2)n1` (some centres unmarked) [I-436], the IC50 is more than 10000 nM.
Under `COC[C@H]1CCCN(C(=O)[C@@H](NC(=O)[C@@H]2CN(C(=O)c3cncs3)CC23CN(C(=O)[C@H]2CC2(C)C)C3)[C@@H](C)OCc2ccc(F)cc2)C1` [I-318] stands not above 10 nM; under `CC1(C)C[C@@H]1C(=O)N1CC2(CN(C(=O)c3cnn(Cc4ccccc4)c3)C[C@H]2C(=O)NC2CCCN(C(=O)c3ccccc3)C2)C1` (some centres unmarked) [I-59A], more than 10000 nM.
On to `CNC(=O)[C@@H](NC(=O)[C@@H]1CN(C(=O)c2cnn(Cc3ccccc3)c2)CC12CN(C(=O)[C@H]1CC1(C)C)C2)[C@@H](C)OC[C@H]1CC[C@H](O)CC1` [I-413], for which the IC50 lay in the range of 100 to 1000 nM.
Take `CC1(C)C[C@@H]1C(=O)N1CC2(CN(C(=O)c3cnn(Cc4ccccc4)c3)C[C@H]2C(=O)N[C@H]2CCN(C3CC3)C2=O)C1` [I-243]: the IC50 was more than 10000 nM.
As for `CNC(=O)[C@@H](NC(=O)[C@H]1CN(C(=O)c2sc(C(C)C)nc2C)CC12CN(C(=O)[C@H]1CC1(C)C)C2)[C@@H](C)OCC1CCCCC1` [I-227B], the IC50 was more than 10000 nM.
As for `CC1(C)C[C@@H]1C(=O)N1CC2(CN(C(=O)c3cnn(Cc4ccccc4)c3)C[C@H]2C(=O)N[C@H]2CCCN(CC3CCCCC3)C2)C1` [I-183], the figure is more than 10000 nM.
Turning to `C[C@@H](OCC1CCCCC1)[C@H](NC(=O)[C@@H]1CN(C(=O)c2cnn(Cc3ccccc3)c2)CC12CN(C(=O)[C@H]1CC1(C)C)C2)C(=O)N1CCC[C@@H]1CN` [I-238], the IC50 fell in the range of 10 to 100 nM.
Take `CC1(C)C[C@@H]1C(=O)N1CC2(CN(C(=O)c3cnn(Cc4ccccc4)c3)C[C@H]2C(=O)N[C@@H]2CCCN(CC3CCCCC3)C2)C1` [I-212]: the IC50 lay within 1000 to 10000 nM.
For the compound `CNC(=O)[C@@H](NC(=O)[C@H]1CN(C(=O)c2cnn(Cc3ccccc3)c2)CC12CN(C(=O)[C@H]1CC1(C)C)C2)C(C)(C)SCc1ccccc1` [I-171B], the IC50 was more than 10000 nM.
For the compound `CC1(C)C[C@@H]1C(=O)N1CC2(CN(C(=O)c3cnn(Cc4ccccc4)c3)C[C@@H]2C(=O)Nc2ccc(Cc3ccccc3)nc2)C1` [I-168], the IC50 lay within 1000 to 10000 nM.
Turning to `Cc1ccc(C(C)NC(=O)[C@@H]2CN(C(=O)c3cnn(Cc4ccccc4)c3)CC23CN(C(=O)[C@H]2CC2(C)C)C3)nn1` (some centres unmarked) [I-366], the IC50 is 1000 to 10000 nM.
`CNC(=O)[C@@H](NC(=O)[C@@H]1CN(C(=O)c2cncs2)CC12CN(C(=O)[C@H]1CC1(C)C)C2)[C@@H](C)OCC12CCC(CC1)OC2` [I-342]: the IC50 was in the range of 10 to 100 nM.
For `CO[C@H]1COCC[C@@H]1NC(=O)[C@@H]1CN(C(=O)c2cnn(Cc3ccccc3)c2)CC12CN(C(=O)[C@H]1CC1(C)C)C2` [I-131A], the IC50 is more than 10000 nM.
Under `CNC(=O)[C@@H](NC(=O)[C@H]1CN(C(=O)c2cnc[nH]2)CC12CN(C(=O)[C@H]1CC1(C)C)C2)[C@@H](C)OCc1ccccc1` [I-44B] stands more than 10000 nM; under `CNC(=O)[C@@H](NC(=O)[C@@H]1CN(C(=O)c2cnn(Cc3ccccc3)c2)CC12CN(C(=O)C1(C#N)CC1)C2)[C@@H](C)OCc1ccccc1` [I-73A], 1000 to 10000 nM; under `C[C@@H](OCC12CCC(CC1)OC2)[C@H](NC(=O)[C@@H]1CN(C(=O)c2cnco2)CC12CN(C(=O)[C@H]1CC1(C)C)C2)C(C)(C)O` [I-450], 100 to 1000 nM.
As for `C[C@@H](OCC1CCCCC1)[C@H](NC(=O)[C@@H]1CN(C(=O)c2ccn[nH]2)CC12CN(C(=O)[C@H]1CC1(C)C)C2)C(=O)N1CCCCC1` [I-216], the figure is 100 to 1000 nM; as for `CNC(=O)[C@@H](NC(=O)[C@@H]1CN(Cc2cnn(Cc3ccccc3)c2)CC12CN(C(=O)[C@H]1CC1(C)C)C2)[C@@H](C)OCc1ccccc1` [I-16A], more than 10000 nM; as for `CNC(=O)[C@@H](NC(=O)[C@@H]1CN(C(=O)c2cnn(CC3CCN(C)CC3)c2)CC12CN(C(=O)[C@H]1CC1(C)C)C2)[C@@H](C)OCc1ccccc1` [I-23A], 1000 to 10000 nM.
Consider `C[C@@H](OCc1ccccc1)[C@H](NC(=O)C1CN(C(=O)c2cnn(Cc3ccccc3)c2)CC12CN(C(=O)[C@H]1CC1(C)C)C2)C(=O)NCC#CCN` (some centres unmarked) [I-28], for which the IC50 was in the range of 100 to 1000 nM.
As to `CNC(=O)[C@@H](NC(=O)[C@@H]1CN(C(=O)c2cn[nH]c2)CC12CN(C(=O)[C@H]1CC1(C)C)C2)[C@@H](C)OCC1CCCCC1` [I-66A, (S)—N-((2S,3R)-3-(cyclohexylmethoxy)-1-(methylamino)-1-oxobutan-2-yl)-2-((S)-2,2-dimethylcyclopropane-1-carbonyl)-6-(1H-pyrazole-4-carbonyl)-2,6-diazaspiro[3.4]octane-8-carboxamide], the IC50 lay in the range of 10 to 100 nM.
For the compound `CNC(=O)[C@@H](NC(=O)[C@@H]1CN(C(=O)c2n[nH]c3ccccc23)CC12CN(C(=O)[C@H]1CC1(C)C)C2)[C@@H](C)OCc1ccccc1` [I-112A], the IC50 is 1000 to 10000 nM.
For the compound `C[C@@H](OCC12CCC(CC1)OC2)[C@H](NC(=O)[C@@H]1CN(C(=O)c2cncs2)CC12CN(C(=O)[C@H]1CC1(C)C)C2)C(=O)N1CCC(OC(F)(F)F)CC1` [I-457], the IC50 is 10 to 100 nM.
For `COCC1(NC(=O)[C@H]2CN(C(=O)c3cnn(Cc4ccccc4)c3)CC23CN(C(=O)[C@H]2CC2(C)C)C3)CC1` [I-250], the IC50 was more than 10000 nM.
On to `CNC(=O)[C@@H](NC(=O)[C@H]1CN(Cc2ccccn2)CC12CN(C(=O)[C@H]1CC1(C)C)C2)[C@@H](C)OCc1ccccc1` [I-40B], for which the IC50 was more than 10000 nM.
For the compound `CNC(=O)[C@@H](NC(=O)[C@H]1CN(C(=O)c2cnn(Cc3ccccc3)c2)CC12CN(C(=O)C1(CCOC)CC1)C2)[C@@H](C)OCc1ccccc1` [I-102B], the IC50 is more than 10000 nM.
Regarding `CNC(=O)C(NC(=O)[C@@H]1CN(C(=O)c2cncs2)CC12CN(C(=O)C(C)(C)C1CC1)C2)c1cccc(C2CCOCC2)n1` (some centres unmarked) [I-338], the IC50 was more than 10000 nM.
As for `COC(=O)[C@H](CO)NC(=O)[C@@H]1CN(C(=O)c2cnn(Cc3ccccc3)c2)CC12CN(C(=O)[C@H]1CC1(C)C)C2` [I-209A], the figure is 1000 to 10000 nM; as for `Cc1nc(C)c(C(=O)N2C[C@@H](C(=O)N[C@H](C(=O)N3CCC4(CC3)COC4)[C@@H](C)OCC34CCC(CC3)OC4)C3(C2)CN(C(=O)[C@H]2CC2(C)C)C3)s1` [I-343], not above 10 nM; as for `C[C@@H](OCC1CCCCC1)[C@H](NC(=O)C1CN(C(=O)c2cnn(Cc3ccccc3)c2)CC12CN(C(=O)[C@H]1CC1(C)C)C2)C(=O)N1CCCC(CO)C1` (some centres unmarked) [I-105], not above 10 nM.
With `CNC(=O)[C@@H](NC(=O)[C@@H]1CN(C(=O)c2cnn(Cc3ccccc3)c2)CC12CN(C(=O)[C@H]1CC1(C)C)C2)[C@@H](C)OCC1CCCCC1` [I-123A, (S)-6-(1-benzyl-1H-pyrazole-4-carbonyl)-N-((2S,3R)-3-(cyclohexylmethoxy)-1-(methylamino)-1-oxobutan-2-yl)-2-((S)-2,2-dimethylcyclopropane-1-carbonyl)-2,6-diazaspiro[3.4]octane-8-carboxamide], the IC50 is not above 10 nM.
With `Cc1nc(C)c(C(=O)N2C[C@@H](C(=O)N[C@H](C(=O)N3CCC(C(F)(F)F)CC3)[C@@H](C)OCC34CCC(CC3)OC4)C3(C2)CN(C(=O)[C@H]2CC2(C)C)C3)s1` [I-456], the IC50 was not above 10 nM.
Turning to `CNC(=O)[C@@H](NC(=O)[C@@H]1CN(C(=O)c2scnc2C)CC12CN(C(=O)[C@H]1CC1(C)C)C2)[C@@H](C)OCC1CCCCC1` [I-160A], the IC50 was 10 to 100 nM.
Consider `CNC(=O)[C@@H](NC(=O)[C@@H]1CN(C(=O)c2cnn(Cc3ccccc3)c2)CC12CN(C(=O)C(C)(C)C)C2)[C@@H](C)OCc1ccccc1` [I-65A], for which the IC50 was in the range of 10 to 100 nM.
For `CNC(=O)[C@@H](NC(=O)[C@H]1CN(C(=O)c2sc(COC)nc2C)CC12CN(C(=O)[C@H]1CC1(C)C)C2)[C@@H](C)OCC1CCCCC1` [I-162B], the IC50 was more than 10000 nM.
As for `COC[C@H]1CCCN(C(=O)[C@@H](NC(=O)[C@@H]2CN(C(=O)c3cncs3)CC23CN(C(=O)[C@H]2CC2(C)C)C3)[C@@H](C)OC[C@H]2CC[C@H](N)CC2)C1` [I-433], the IC50 was in the range of 1000 to 10000 nM.
For `C[C@@H](OCC12CCC(CC1)CC2)[C@H](NC(=O)[C@@H]1CN(C(=O)c2cncs2)CC12CN(C(=O)[C@H]1CC1(C)C)C2)C(C)(C)O` [I-304], the IC50 was not above 10 nM.
On to `C[C@@H](OCC12CCC(CC1)OC2)[C@H](NC(=O)[C@@H]1CN(C(=O)c2cnco2)CC12CN(C(=O)C(C)(C)C1CC1)C2)C(C)(C)O` [I-448], for which the IC50 was in the range of 1000 to 10000 nM.
As for `COC[C@H]1CCCN(C(=O)[C@@H](NC(=O)[C@@H]2CN(C(=O)c3cncs3)CC23CN(C(=O)[C@H]2CC2(C)C)C3)[C@@H](C)OC[C@H]2CC[C@@H](OC)CC2)C1` [I-408], the IC50 was in the range of 10 to 100 nM.
Take `CNC(=O)[C@@H](NC(=O)[C@H]1CN(C(=O)c2scnc2C(C)(C)C)CC12CN(C(=O)[C@H]1CC1(C)C)C2)[C@@H](C)OCC1CCCCC1` [I-231B]: the IC50 is more than 10000 nM.
Under `C[C@@H](OCC1CCCCC1)[C@H](NC(=O)[C@@H]1CN(C(=O)c2cnn(C(F)(F)F)c2)CC12CN(C(=O)[C@H]1CC1(C)C)C2)C(=O)N1CCCCC1` [I-115] stands 100 to 1000 nM; under `CNC(=O)[C@@H](NC(=O)[C@H]1CN(C(=O)c2cnn(Cc3ccccc3)c2)CC12CN(C(=O)[C@H]1CC1(C)C)C2)[C@@H](C)OCCC1CCCCC1` [I-125B], 10 to 100 nM.
